Data on 1 substance can be found in US10174083B2, “Aza-amino acid collagen compounds” (The Trustees of the University of Pennsylvania, priority 2016, dated 2019).

The data set can be described thus: Triple helix self-assembly by CD spectroscopy. Type of data set: physicochemical.

Protocol: Circular dichroism (CD) spectroscopy was used to evaluate self-assembly of the triple helix for each of our collagen model peptides. […] The data from CD thermal denaturation experiments were fitted to a two-state model, as previously described.
Purified peptides were incubated in PBS buffer for at least 24 hours. […] The data from CD thermal denaturation experiments were fitted to a two-state model as previously described.^12,13 The melting temperatures (Tm), at which 50% of the triple helix unfolds, are listed next to the peptides in FIG. 11.
Resulting peptide 5 was purified by HPLC and incubated at a concentration of 0.2 mM in PBS buffer (pH 7) for 24 h.
Multiple aza-Proline residues: Finally, we determined the number of stereodynamic center (i.e., AzProHypGly trimer) that can be incorporated into a collagen model peptide without perturbing the triple-helix formation.

For the substance (GPO)4, the “triple helix formation / self-assembly” value is on record as “does not”.
